Patent publication US9894902B2, “Herbicidal compositions comprising 4-amino-3-chloro-6-(4-chloro-2-fluoro-3-methoxyphenyl)pyridine-2-carboxylic acid or a derivative thereof and picloram or a derivative thereof” (Dow AgroSciences LLC, priority 2013, dated 2018)

What was measured:
Assay in all cases: Postemergent herbicidal activity, greenhouse, foliar-applied
Format in all cases: in vivo
Details in all cases: foliar postemergence
[1] = tested on: STEME Stellaria media (L.) Vill. (common chickweed)
Experimental: (§1) Evaluation of Postemergent Herbicidal Activity. Seeds or nutlets of the desired test plant species were planted in Sun Gro Metro-Mix® 360 planting mixture, which typically has a pH of 6.0 to 6.8 and an organic matter content of about 30 percent, in plastic pots with a surface area of 64 square centimeters (cm^2). […] The plants were grown for 7-21 days (d) in a greenhouse with an approximate 15 hour (h) photoperiod which was maintained at about 23-29° C. during the day and 22-28° C. during the night. Nutrients and water were added on a regular basis and supplemental lighting was provided with overhead metal halide 1000-Watt lamps as necessary. The plants were employed for testing when they reached the first or second true leaf stage.
(§2) A weighed amount, determined by the highest rate to be tested, of each test compound was placed in a 25 milliliter (mL) glass vial and was dissolved in 4 mL of a 97:3 volume per volume (v/v) mixture of acetone and dimethyl sulfoxide (DMSO) to obtain concentrated stock solutions. […] The concentrated stock solutions obtained were diluted with 20 mL of an aqueous mixture containing acetone, water, isopropyl alcohol, DMSO, Atplus 411F crop oil concentrate, and Triton® X-155 surfactant in a 48.5:39:10:1.5:1.0:0.02 v/v ratio to obtain spray solutions containing the highest application rates. Additional application rates were obtained by serial dilution of 12 mL of the high rate solution into a solution containing 2 mL of a 97:3 v/v mixture of acetone and DMSO and 10 mL of an aqueous mixture containing acetone, water, isopropyl alcohol, DMSO, Atplus 411F crop oil concentrate, and Triton X-155 surfactant in a 48.5:39:10:1.5:1.0:0.02 v/v ratio to obtain 1/2×, 1/4×, 1/8×and 1/16× rates of the high rate. Compound requirements are based upon a 12 mL application volume at a rate of 187 liters per hectare (L/ha). Formulated compounds were applied to the plant material with an overhead Mandel track sprayer equipped with 8002E nozzles calibrated to deliver 187 L/ha over an application area of 0.503 square meters (m^2) at a spray height of 18 inches ([…]) above the average plant canopy height. Control plants were sprayed in the same manner with the solvent blank.
(§3) Treatments consisted of the methyl ester of 4-amino-3-chloro-6-(4-chloro-2-fluoro-3-methoxyphenyl)pyridine-2-carboxylic acid (Cmpd 1) as technical grade material and picloram (Tordon® 22K) alone and in combination. The form of compound of formula (I) and picloram-potassium salt were applied on an acid equivalent basis.
(§4) The treated plants and control plants were placed in a greenhouse as described above and watered by subirrigation to prevent wash-off of the test compounds. After 14 d, the condition of the test plants as compared with that of the untreated plants was determined visually and scored on a scale of 0 to 100 percent where 0 corresponds to no injury and 100 corresponds to complete kill.
(§5) The values reported are % control visually rated. Colby's equation was used to determine the herbicidal effects expected from the mixtures (Colby, S.R. Calculation of the synergistic and antagonistic response of herbicide combinations. Weeds 1967, 15, 20-22.).
(§6) More specifically, the following equation was used to calculate the expected activity of mixtures containing two active ingredients, A and B: Expected=A+B−(A×B/100) • A=observed efficacy of active ingredient A at the same concentration as used in the mixture; • B=observed efficacy of active ingredient B at the same concentration as used in the mixture.

[2] = tested on: EPHHL Euphorbia heterophylla L. (wild poinsettia)
Experimental: as §1, §2, §3, §4, §5, §6

[3] = tested on: SETFA Setaria faberi Herrm. (giant foxtail)
Experimental: as §1, §2, §3, §4, §5, §6

[4] = tested on: GLXMA Glycine max (volunteer soybean)
Experimental: as §1, §2, §3, §4, §5, §6

[5] = tested on: CYPES Cyperus esculentus L. (yellow nutsedge)
Experimental: as §1, §2, §3, §4, §5, §6

[6] = tested on: AMARE Amaranthus retroflexus L. (redroot pigweed)
Experimental: as §1, §2, §3, §4, §5, §6

[7] = tested on: ABUTH Abutilon theophrasti Medik. (velvetleaf)
Experimental: as §1, §2, §3, §4, §5, §6

[8] = tested on: CIRAR Cirsium arvense (L.) Scop. (Canada thistle)
Experimental: as §1, §2, §3, §4, §5, §6

[9] = tested on: BRSNW Brassica napus (winter oilseed rape)
Experimental: as §1, §2, §3, §4, §5, §6

[10] = tested on: VIOTR Viola tricolor L. (wild violet)
Experimental: as §1, §2, §3, §4, §5, §6

COC(=O)c1nc(-c2ccc(Cl)c(OC)c2F)cc(N)c1Cl [Cmpd I, methyl ester of 4-amino-3-chloro-6-(4-chloro-2-fluoro-3-methoxyphenyl)pyridine-2-carboxylic acid]
Visual Growth reduction (%) 14 Days After Application STEME obs ([1]; Cmpd I 2.5 g ae/ha alone): 50% | Visual Growth reduction (%) 14 Days After Application STEME obs ([1]; Cmpd I 5 g ae/ha alone): 57% | Visual Growth reduction (%) 14 Days After Application STEME obs ([1]; Cmpd I 10 g ae/ha alone): 72% | Visual Growth reduction (%) 14 Days After Application EPHHL obs ([2]; Cmpd I 2.5 g ae/ha alone): 85% | Visual Growth reduction (%) 14 Days After Application EPHHL obs ([2]; Cmpd I 5 g ae/ha alone): 93% | Visual Growth reduction (%) 14 Days After Application EPHHL obs ([2]; Cmpd I 10 g ae/ha alone): 100% | Visual Growth reduction (%) 14 Days After Application SETFA obs ([3]; Cmpd I 2.5 g ae/ha alone): 0% | Visual Growth reduction (%) 14 Days After Application SETFA obs ([3]; Cmpd I 5 g ae/ha alone): 5% | Visual Growth reduction (%) 14 Days After Application SETFA obs ([3]; Cmpd I 10 g ae/ha alone): 35% | Visual Growth reduction (%) 14 Days After Application GLXMA obs ([4]; Cmpd I 2.5 g ae/ha alone): 80% | Visual Growth reduction (%) 14 Days After Application GLXMA obs ([4]; Cmpd I 5 g ae/ha alone): 87% | Visual Growth reduction (%) 14 Days After Application GLXMA obs ([4]; Cmpd I 10 g ae/ha alone): 100% | Visual Growth reduction (%) 14 Days After Application CYPES obs ([5]; Cmpd I 2.5 g ae/ha alone): 20% | Visual Growth reduction (%) 14 Days After Application CYPES obs ([5]; Cmpd I 5 g ae/ha alone): 72% | Visual Growth reduction (%) 14 Days After Application CYPES obs ([5]; Cmpd I 10 g ae/ha alone): 96% | Visual Growth reduction (%) 14 Days After Application AMARE obs ([6]; Cmpd I 2.5 g ae/ha alone): 50% | Visual Growth reduction (%) 14 Days After Application AMARE obs ([6]; Cmpd I 5 g ae/ha alone): 58% | Visual Growth reduction (%) 14 Days After Application AMARE obs ([6]; Cmpd I 10 g ae/ha alone): 77% | Visual Growth reduction (%) 14 Days After Application ABUTH obs ([7]; Cmpd I 2.5 g ae/ha alone): 87% | Visual Growth reduction (%) 14 Days After Application ABUTH obs ([7]; Cmpd I 5 g ae/ha alone): 85% | Visual Growth reduction (%) 14 Days After Application ABUTH obs ([7]; Cmpd I 10 g ae/ha alone): 90% | Visual Growth reduction (%) 14 Days After Application CIRAR obs ([8]; Cmpd I 2.5 g ae/ha alone): 47% | Visual Growth reduction (%) 14 Days After Application CIRAR obs ([8]; Cmpd I 5 g ae/ha alone): 53% | Visual Growth reduction (%) 14 Days After Application CIRAR obs ([8]; Cmpd I 10 g ae/ha alone): 65% | Visual Growth reduction (%) 14 Days After Application BRSNW obs ([9]; Cmpd I 2.5 g ae/ha alone): 0% | Visual Growth reduction (%) 14 Days After Application BRSNW obs ([9]; Cmpd I 5 g ae/ha alone): 0% | Visual Growth reduction (%) 14 Days After Application BRSNW obs ([9]; Cmpd I 10 g ae/ha alone): 10% | Visual Growth reduction (%) 14 Days After Application VIOTR obs ([10]; Cmpd I 2.5 g ae/ha alone): 30% | Visual Growth reduction (%) 14 Days After Application VIOTR obs ([10]; Cmpd I 5 g ae/ha alone): 43% | Visual Growth reduction (%) 14 Days After Application VIOTR obs ([10]; Cmpd I 10 g ae/ha alone): 62%

Nc1c(Cl)c(Cl)nc(C(=O)O)c1Cl [Picloram, 4-amino-3,5,6-trichloro-2-pyridinecarboxylic acid]
Visual Growth reduction (%) 14 Days After Application STEME obs ([1]; Picloram 12 g ae/ha alone): 27% | Visual Growth reduction (%) 14 Days After Application STEME obs ([1]; Picloram 24 g ae/ha alone): 17% | Visual Growth reduction (%) 14 Days After Application EPHHL obs ([2]; Picloram 12 g ae/ha alone): 62% | Visual Growth reduction (%) 14 Days After Application EPHHL obs ([2]; Picloram 24 g ae/ha alone): 65% | Visual Growth reduction (%) 14 Days After Application SETFA obs ([3]; Picloram 12 g ae/ha alone): 0% | Visual Growth reduction (%) 14 Days After Application SETFA obs ([3]; Picloram 24 g ae/ha alone): 0% | Visual Growth reduction (%) 14 Days After Application GLXMA obs ([4]; Picloram 12 g ae/ha alone): 73% | Visual Growth reduction (%) 14 Days After Application GLXMA obs ([4]; Picloram 24 g ae/ha alone): 82% | Visual Growth reduction (%) 14 Days After Application CYPES obs ([5]; Picloram 12 g ae/ha alone): 0% | Visual Growth reduction (%) 14 Days After Application CYPES obs ([5]; Picloram 24 g ae/ha alone): 0% | Visual Growth reduction (%) 14 Days After Application AMARE obs ([6]; Picloram 12 g ae/ha alone): 63% | Visual Growth reduction (%) 14 Days After Application AMARE obs ([6]; Picloram 24 g ae/ha alone): 63% | Visual Growth reduction (%) 14 Days After Application ABUTH obs ([7]; Picloram 12 g ae/ha alone): 25% | Visual Growth reduction (%) 14 Days After Application ABUTH obs ([7]; Picloram 24 g ae/ha alone): 15% | Visual Growth reduction (%) 14 Days After Application CIRAR obs ([8]; Picloram 12 g ae/ha alone): 65% | Visual Growth reduction (%) 14 Days After Application CIRAR obs ([8]; Picloram 24 g ae/ha alone): 82% | Visual Growth reduction (%) 14 Days After Application BRSNW obs ([9]; Picloram 12 g ae/ha alone): 13% | Visual Growth reduction (%) 14 Days After Application BRSNW obs ([9]; Picloram 24 g ae/ha alone): 20% | Visual Growth reduction (%) 14 Days After Application VIOTR obs ([10]; Picloram 12 g ae/ha alone): 0% | Visual Growth reduction (%) 14 Days After Application VIOTR obs ([10]; Picloram 24 g ae/ha alone): 3%
